Where a name gives a salt, the structure may show the parent alone.
Columns and labels:
human 5-HT2A receptor = molecular target: T1, human 5-HT2A receptor (Homo sapiens, UniProt P28223); experiment: Test A: binding to human recombinant 5-HT2A serotonin receptor, [3H]-ketanserin displacement; conditions: membranes from CHO-K1 cells expressing human 5-HT2A; 0.5 nM [3H]-ketanserin; 1 hour at 25° C.; read-out: 5-HT2A (pKi) (converted)
T1 construct: expressed in transfected cells
Procedure: In particular, binding to the human 5-HT2A serotonin receptor was performed using, as starting material, a preparation of membranes from stable recombinant CHO-K1 cell line expressing the human 5-HT2A receptor.
The non-specific binding was measured in the presence of 1 μM mianserin. The assay was conducted in Tris-HCl 50 mM buffer (pH 7.4 at 37° C.), with incubation for 1 hour at 25° C. The test compounds were dissolved in DMSO, then diluted in buffer (final DMSO concentration 0.01%) and plated on 96-well plates. The compounds were tested in duplicate in an 8-points concentration response curve (in a Log scale ranging from 10^−12 to 10^−5 M).
After incubation, the membranes were filtered on glass-fibre filters (GF/B) (Unifilter, Packard) treated with 0.5% polyethyleneimine. Then the filters were washed with buffer solution and oven-dried for 30 minutes at 45° C. The scintillation liquid was added to each well, and at least 16 hours later the radioactivity was measured for 1 minute using a TopCount (Packard).
The IC50 values for each compound were calculated using non-linear regression analysis (GraphPad PRISM software) and the inhibition constants Ki were determined using the equation described by Cheng Y. and Prussof W. H. (1973) “Relationship between the inhibition constant (Ki) and the concentration of inhibitor which causes 50 percent inhibition (I50) of an enzyme reaction.” Biochem. Pharmacol. 22: 3099-3108.

human 5-HT2C receptor = molecular target: T2, human 5-HT2C receptor (Homo sapiens, UniProt P28335); experiment: Test B: binding to human 5-HT2C serotonin receptor, [3H]-mesulergine displacement; conditions: membranes from CHO-K1 cells expressing human 5-HT2C; 1 nM [3H]-mesulergine; 1 hour at 25° C.; read-out: (h)5-HT2c (pKi) (converted)
T2 construct: expressed in transfected cells
T2 sequence (P28335 33-458): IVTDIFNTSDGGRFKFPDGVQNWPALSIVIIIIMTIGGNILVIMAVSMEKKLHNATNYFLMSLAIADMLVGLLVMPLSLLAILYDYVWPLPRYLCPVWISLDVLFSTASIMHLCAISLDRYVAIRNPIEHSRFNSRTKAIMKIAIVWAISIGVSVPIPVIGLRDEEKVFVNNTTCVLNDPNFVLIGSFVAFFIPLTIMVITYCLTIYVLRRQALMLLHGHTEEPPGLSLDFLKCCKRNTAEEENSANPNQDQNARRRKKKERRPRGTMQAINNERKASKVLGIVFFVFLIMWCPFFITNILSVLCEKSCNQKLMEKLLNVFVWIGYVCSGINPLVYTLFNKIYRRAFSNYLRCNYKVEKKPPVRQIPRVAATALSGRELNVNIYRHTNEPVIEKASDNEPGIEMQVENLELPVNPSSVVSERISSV
Procedure: 69: 1449-1458. In particular, binding to the human serotonin 5-HT2C receptor was performed using, as starting material, a preparation of membranes from stable recombinant CHO-K1 cell line expressing the human 5-HT2C receptor. […] The non-specific binding was measured in the presence of 1 μM mianserin. The assay was conducted in Tris-HCl 50 mM buffer (pH 7.4 at 37° C.), 0.1% Ascorbic Acid, 10 μM Pargyline, with incubation for 1 hour at 25° C. The test compounds were dissolved in DMSO, then diluted in buffer (final DMSO concentration 0.01%) and plated on 96-well plates The compounds were tested in duplicate in an 8-points concentration response curve (in a Log scale ranging from 10^−12 to 10^−5 M). SB 242084 was used as reference compound. […] Then the filters were washed with buffer solution and oven-dried for 30 minutes at 45° C. The scintillation liquid was added to each well, and at least 16 hours later the radioactivity was measured for 1 minute using a TopCount (Packard). The IC50 values for each compound were calculated using non-linear regression analysis (GraphPad PRISM software) and the inhibition constants Ki were determined using the equation described by Cheng Y. and Prussof W. H. […] Pharmacol. 22: 3099-3108.

serotoninergic system = experiment: Test C: 5-HTP-induced head twitch test in mice; assay type: in vivo, mouse; conditions: male CD-1 mice; 5 mg/kg intraperitoneally; 5-HTP 300 mg/kg i.p. 30 min later; counted 24 to 26 minutes after 5-HTP
Procedure: The interactions of the compounds of formula (I) according to the present invention with the serotoninergic system was tested following the “head twitch” model in the mouse, according to the standard methodology described by Sztanke K., Fidecka S., Kedzierska E., Karczmarzyk Z., Pihlaja K., Matosiuk D. (2005) in “Antionociceptive activity of new imidazole carbonyl derivatives. Part 4. Synthesis and pharmacological activity of 8-aryl-3,4-dioxo-2H,8H-6,7-dihydrimidazo[2,1c][1,2,4]triazine.” Eur. J. Med. Chem. 40: 127-134, and in Corne S. J., Pickering R. W., Warner B. T. (1963) “A method for assessing the effects of drugs on the central actions of 5-hydroxytryptamine.” Br. J. Pharmacol. Chemother. 20: 106-120.
The “head twitches” are a characteristic shaking of the head induced in the animals by the increase in central levels of serotonin.
Male CD-1 mice weighing 25-30 g were used for the “head twitch” test. Molecules were suspended in a 0.5% methylcellulose aqueous solution (MTC) and the animals were treated intraperitoneally with the test compounds at the dose of 5 mg/kg (10 ml/kg body weight). The control animals received the vehicle alone (MTC) by the same route. Head twitches, considered as a specific behavioural model for the activation of serotoninergic neurons, were induced by an intraperitoneal administration of 5-hydroxytryptophan (5-HTP), a precursor of serotonin (5-HT), dissolved in a 0.5% MTC solution and given at 300 mg/kg 30 min following drug administration.
The number of head twitches, which constitutes the parameter for assessment of the serotoninergic response, was measured in the interval from 24 to 26 minutes after administration of 5-HTP.

T1 sequence (P28223 whole entry): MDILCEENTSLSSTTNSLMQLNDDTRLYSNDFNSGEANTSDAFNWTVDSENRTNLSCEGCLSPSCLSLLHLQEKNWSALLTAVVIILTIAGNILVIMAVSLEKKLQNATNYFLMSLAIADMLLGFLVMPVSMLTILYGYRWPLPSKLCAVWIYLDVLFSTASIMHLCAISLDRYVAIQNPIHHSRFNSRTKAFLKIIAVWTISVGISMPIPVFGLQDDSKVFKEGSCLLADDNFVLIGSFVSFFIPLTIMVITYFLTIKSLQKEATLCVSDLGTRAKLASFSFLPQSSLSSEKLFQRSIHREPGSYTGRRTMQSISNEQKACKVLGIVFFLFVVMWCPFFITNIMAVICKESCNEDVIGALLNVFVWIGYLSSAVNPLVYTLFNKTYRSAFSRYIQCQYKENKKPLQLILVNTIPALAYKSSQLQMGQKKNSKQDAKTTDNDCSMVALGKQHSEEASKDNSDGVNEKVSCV

Compound | Ki (human 5-HT2A receptor) | Ki (human 5-HT2C receptor) | % INHIBITION (number of head twitches vs vehicle treated group) (serotoninergic system)
Cl.O=C1c2c3ccccc3nn2CCN1CC1CCN(CCc2ccc(F)cc2)CC1 [Compound 1, 2-({1-[2-(4-fluorophenyl)ethyl]piperidin-4-yl}methyl)-3,4-dihydropyrazino[1,2-b]indazol-1(2H)-one hydrochloride] | 19.5 nM | 1700 nM | 50%
O=C1c2c3ccccc3nn2CCN1CC1CCCN(CCc2ccc(F)cc2)C1 (stereo not shown) [Compound 2, 2-({1-[2-(4-fluorophenyl)ethyl]piperidin-3-yl}methyl)-3,4-dihydropyrazino[1,2-b]indazol-1(2H)-one] | 1150 nM | – | –
Cl.O=C1c2c3ccccc3nn2CCCN1CC1CCN(CCc2ccc(F)cc2)CC1 [Compound 16, 2-({1-[2-(4-fluorophenyl)ethyl]piperidin-4-yl}methyl)-2,3,4,5-tetrahydro-1H-[1,4]diazepino[1,2-b]indazol-1-one hydrochloride] | 7.24 nM | > 10000 nM | 56%
O=C1c2c3c(nn2CCN1CC1CCN(CCc2ccc(F)cc2)CC1)CCCC3 [Compound 17, 2-({1-[2-(4-fluorophenyl)ethyl]piperidin-4-yl}methyl)-3,4,7,8,9,10-esahydropyrazino[1,2-b]indazol-1(2H)-one hydrochloride] | 29.5 nM | 7410 nM | 32%
O=C1c2c3ccccc3nn2CCN1CC1CCN(CCc2ccccc2)CC1 [Compound 20, 2-[(1-phenethylpiperidin-4-yl)methyl]-3,4-dihydropyrazino[1,2-b]indazol-1(2H)-one hydrochloride] | 16.6 nM | – | –
O=C1c2c3ccccc3nn2CCCN1CC1CCN(CCc2ccccc2)CC1 [Compound 22, 2-[(1-phenethylpiperidin-4-yl)methyl]-2,3,4,5-tetrahydro-1H-[1,4]diazepino[1,2-b]indazol-1-one] | 20.9 nM | – | –
O=C1c2c3ccccc3nn2CCN1CCCN1CCC(c2ccccc2)CC1 [Compound 28, 2-[3-(4-phenylpiperidin-1-yl)propyl]-3,4-dihydropyrazino[1,2-b]indazol-1(2H)-one hydrochloride] | 74.1 nM | > 10000 nM | –
O=C1c2c3ccccc3nn2CCCN1CCCN1CCC(c2ccccc2)CC1 [Compound 31, 2-[3-(4-phenylpiperidin-1-yl)propyl]-2,3,4,5-tetrahydro-1H-[1,4]diazepino[1,2-b]indazol-1-one hydrochloride] | 45.7 nM | > 10000 nM | –
Cc1cc2c(cc1Cl)N(C(=O)Nc1ccc(Oc3cccnc3C)nc1)CC2 [SB 242084, reference compound] | – | 0.468 nM | –

Second part, led by results:

Ki (human 5-HT2A receptor) | Compound | Ki (human 5-HT2C receptor) | % INHIBITION (number of head twitches vs vehicle treated group) (serotoninergic system)
692 nM | O=C1c2c3ccccc3nn2CCN1CC1CCCN(CCc2ccccc2F)C1 (stereo not shown) [Compound 5, 2-({1-[2-(2-fluorophenyl)ethyl]piperidin-3-yl}methyl)-3,4-dihydropyrazino[1,2-b]indazol-1(2H)-one hydrochloride] | – | –
1.82 nM | O=C1c2c3ccccc3nn2CCN1CC1CCN(CCc2ccccc2F)CC1 [Compound 8, 2-({1-[2-(2-fluorophenyl)ethyl]piperidin-4-yl}methyl)-3,4-dihydropyrazino[1,2-b]indazol-1(2H)-one] | – | 70%
275 nM | O=C1c2c3ccccc3nn2CCCN1CC1CCCN(CCc2ccc(F)cc2)C1 (stereo not shown) [Compound 10, 2-({1-[2-(4-fluorophenyl)ethyl]piperidin-3-yl}methyl)-2,3,4,5-tetrahydro-1H-[1,4]diazepino[1,2-b]indazol-1-one dihydrochloride] | – | –
257 nM | O=C1c2c3ccccc3nn2CCCN1CC1CCCN(CCc2ccccc2F)C1 (stereo not shown) [Compound 13, 2-({1-[2-(2-fluorophenyl)ethyl]piperidin-3-yl}methyl)-2,3,4,5-tetrahydro-1H-[1,4]diazepino[1,2-b]indazol-1-one dihydrochloride] | – | –
